The results in this text go back to US9593149B2, “Amylin and calcitonin receptor agonist” (Novo Nordisk A/S, priority 2014, dated 2017).

A short description of the series: Assay (IV) determination of solubility. The class given is physicochemical. As for the experimental part:
Assay (IV)—Determination of Solubility
The mimylin peptide was dissolved in water at ˜500 nmol/ml and mixed 1:1 with a series of buffers (100 mM glycylglycine pH 3.0, 100 mM glycylglycine pH 4.0, 100 mM glycylglycine pH 5.0, 100 mM bistrispropane pH 6.0, 100 mM bistrispropane pH 6.5, 100 mM bistrispropane pH 7.0, 100 mM bistrispropane pH 7.5, 100 mM bistrispropane pH 8.0).

Converted amounts (≈) assume the structure as drawn. Numbered stars: 1 amine (or outer) side, 2 acyl side, 3 side chain; on linkers, the order of the positions; unused ones are H or OH. Peptide text beside a SMILES is read from it. * marks the point of attachment. C20 diacid = O=C(O)CCCCCCCCCCCCCCCCCCC(=O)*; C18 diacid = O=C(O)CCCCCCCCCCCCCCCCC(=O)*; γGlu = O=C(O)[C@H](CCC(=O)[*:2])N[*:1]

In the case of `CC(C)C[C@H](NC(=O)[C@H](C)NC(=O)[C@H](C)NC(=O)[C@@H](NC(=O)[C@H](CO)NC(=O)[C@H](CC(C)C)NC(=O)[C@H](CCC(=O)O)NC(=O)[C@H](CO)NC(=O)[C@H](C)NC(=O)CC[C@H](NC(=O)CCCCCCCCCCCCCCCCCCC(=O)O)C(=O)O)[C@@H](C)O)C(=O)NCC(=O)N[C@@H](CCCNC(=N)N)C(=O)N[C@@H](CC(C)C)C(=O)N[C@@H](CO)C(=O)N[C@@H](C)C(=O)N[C@@H](CCC(=O)O)C(=O)N[C@@H](CC(C)C)C(=O)N[C@@H](Cc1cnc[nH]1)C(=O)N[C@@H](CCC(=O)O)C(=O)N[C@@H](CC(C)C)C(=O)N[C@@H](C)C(=O)N[C@H](C(=O)N[C@@H](CC(C)C)C(=O)N1CCC[C@H]1C(=O)N[C@@H](CCCNC(=N)N)C(=O)N[C@H](C(=O)N[C@@H](CCC(=O)O)C(=O)N[C@H](C(=O)NCC(=O)N[C@H](C(=O)NCC(=O)N[C@H](C(=O)N1CCC[C@H]1C(N)=O)[C@@H](C)O)[C@@H](C)O)[C@@H](C)O)[C@@H](C)O)[C@@H](C)O` [compound 74, [N-terminal(C20 diacid-gGlu), des1, 30T, 31G, 32T]mimylin] ({C20 diacid-γGlu}-ASELSTAALGRLSAELHELATLPRTETGTGTP-NH2), the Solubility result is, setting by setting: (pH 3.0) “≧200 μM”; (pH 4.0) “≧200 μM”; (pH 5.0) “≧200 μM”; (pH 6.0) “≧200 μM”; (pH 6.5) “≧200 μM”; (pH 7.0) “≧200 μM”. The Solubility entry is recorded as “≧200 μM” (pH 7.5) and “≧200 μM” (pH 8.0).

On to `CC(C)C[C@H](NC(=O)[C@H](C)NC(=O)[C@H](C)NC(=O)[C@@H](NC(=O)[C@H](CO)NC(=O)[C@H](CC(C)C)NC(=O)[C@H](CCC(=O)O)NC(=O)[C@H](CO)NC(=O)[C@H](C)NC(=O)CC[C@H](NC(=O)CCCCCCCCCCCCCCCCC(=O)O)C(=O)O)[C@@H](C)O)C(=O)NCC(=O)N[C@@H](CCCNC(=N)N)C(=O)N[C@@H](CC(C)C)C(=O)N[C@@H](CO)C(=O)N[C@@H](C)C(=O)N[C@@H](CCC(=O)O)C(=O)N[C@@H](CC(C)C)C(=O)N[C@@H](Cc1cnc[nH]1)C(=O)N[C@@H](CCC(=O)O)C(=O)N[C@@H](CC(C)C)C(=O)N[C@@H](C)C(=O)N[C@H](C(=O)N[C@@H](CC(C)C)C(=O)N1CCC[C@H]1C(=O)N[C@@H](CCCNC(=N)N)C(=O)N[C@H](C(=O)N[C@@H](CCC(=O)O)C(=O)N[C@H](C(=O)NCC(=O)N[C@@H](CO)C(=O)NCC(=O)N1CCC[C@H]1C(=O)N1CCC[C@H]1C(N)=O)[C@@H](C)O)[C@@H](C)O)[C@@H](C)O` [compound 75, [N-terminal(C18 diacid-gGlu), des1, 30S, 31G, 32P]mimylin] ({C18 diacid-γGlu}-ASELSTAALGRLSAELHELATLPRTETGSGPP-NH2), for which the Solubility result is reported as “≧200 μM” (pH 3.0); “≧200 μM” (pH 4.0); “≧200 μM” (pH 5.0); “≧200 μM” (pH 6.0); “≧200 μM” (pH 6.5); “≧200 μM” (pH 7.0). Also, the Solubility entry by setting is: (pH 7.5) “≧200 μM”; (pH 8.0) “≧200 μM”.

For `CC(C)C[C@H](NC(=O)[C@H](CCC(=O)O)NC(=O)[C@H](Cc1cnc[nH]1)NC(=O)[C@H](CC(C)C)NC(=O)[C@H](CCC(=O)O)NC(=O)[C@H](C)NC(=O)[C@H](CO)NC(=O)[C@H](CC(C)C)NC(=O)[C@H](CCCNC(=N)N)NC(=O)CNC(=O)[C@H](CC(C)C)NC(=O)[C@@H](NC(=O)[C@H](C)NC(=O)[C@@H](NC(=O)[C@H](CO)NC(=O)[C@H](CC(C)C)NC(=O)[C@H](CCC(=O)O)NC(=O)[C@H](CO)NC(=O)[C@H](C)NC(=O)CC[C@H](NC(=O)CCCCCCCCCCCCCCCCC(=O)O)C(=O)O)[C@@H](C)O)C(C)C)C(=O)N[C@@H](C)C(=O)N[C@H](C(=O)N[C@@H](CC(C)C)C(=O)N1CCC[C@H]1C(=O)N[C@@H](CCCNC(=N)N)C(=O)N[C@H](C(=O)N[C@@H](CCC(=O)O)C(=O)N[C@H](C(=O)NCC(=O)N[C@@H](CO)C(=O)NCC(=O)N[C@@H](CO)C(=O)N1CCC[C@H]1C(N)=O)[C@@H](C)O)[C@@H](C)O)[C@@H](C)O` [compound 76, [N-terminal(C18 diacid-gGlu), des1, 9V, 30S, 31G]mimylin] ({C18 diacid-γGlu}-ASELSTAVLGRLSAELHELATLPRTETGSGSP-NH2), the Solubility result is, setting by setting: (pH 3.0) “≧200 μM”; (pH 4.0) “≧200 μM”; (pH 5.0) “≧200 μM”; (pH 6.0) “≧200 μM”; (pH 6.5) “≧200 μM”; (pH 7.0) “≧200 μM”. Further, the Solubility entry reads like this: (pH 7.5) “≧200 μM”; (pH 8.0) “≧200 μM”.

Broadly, the solubility is how much of the substance goes into solution per volume. For the compound `CC[C@H](C)[C@H](NC(=O)[C@H](C)NC(=O)[C@@H](NC(=O)[C@H](CO)NC(=O)[C@@H](NC(=O)[C@H](CCC(=O)O)NC(=O)[C@H](CO)NC(=O)[C@H](C)NC(=O)[C@H](CCC(=O)O)NC(=O)CCCCCCCCCCCCCCCCC(=O)O)[C@@H](C)CC)[C@@H](C)O)C(=O)N[C@H](C(=O)NCC(=O)N[C@@H](CCCNC(=N)N)C(=O)N[C@@H](CC(C)C)C(=O)N[C@@H](CO)C(=O)N[C@@H](C)C(=O)N[C@@H](CCC(=O)O)C(=O)N[C@@H](CC(C)C)C(=O)N[C@@H](Cc1cnc[nH]1)C(=O)N[C@@H](CCC(=O)O)C(=O)N[C@H](C(=O)N[C@@H](C)C(=O)N[C@H](C(=O)N[C@@H](CC(C)C)C(=O)N1CCC[C@H]1C(=O)N[C@@H](CCCNC(=N)N)C(=O)N[C@H](C(=O)N[C@@H](CCC(=O)O)C(=O)N[C@H](C(=O)NCC(=O)N1CCC[C@H]1C(=O)N[C@@H](CCC(=O)O)C(=O)N[C@@H](CO)C(=O)N1CCC[C@H]1C(N)=O)[C@@H](C)O)[C@@H](C)O)[C@@H](C)O)[C@@H](C)CC)[C@@H](C)CC` [compound 77, [N-terminal(C18 diacid), 5I, 9I, 10I, 20I]mimylin] ({C18 diacid}-EASEISTAIIGRLSAELHEIATLPRTETGPESP-NH2), the Solubility result is “≧200 μM” (pH 3.0); “≧200 μM” (pH 6.0); “≧200 μM” (pH 6.5); “≧200 μM” (pH 7.0); “≧200 μM” (pH 7.5); “≧200 μM” (pH 8.0). Further, the solubility at 18 h (pH 4.0) came out at 7 µM (≈ 26.4 µg/mL) and the solubility at 18 h (pH 5.0) was determined as 11 µM (≈ 41.5 µg/mL).
